Numbered stars: 1 amine (or outer) side, 2 acyl side, 3 side chain; on linkers, the order of the positions; unused ones are H or OH. Side chains are listed from the residue outwards. Peptide text beside a SMILES is read from it. * marks the point of attachment. C18 diacid = O=C(O)CCCCCCCCCCCCCCCCC(=O)*; γGlu = O=C(O)[C@H](CCC(=O)[*:2])N[*:1]; AEEA = NCCOCCOCC(=O)O
Tests used:
[1] = Assay (X) Chemical stability assessment by RP-UPLC; format: physicochemical; settings: pH 8.15, 14 days at 37° C. vs 5° C., 333 μM
glucagon receptor = target: T1, glucagon receptor (Homo sapiens, UniProt P47871); assay: Assay (I) Glucagon activity (cAMP biosensor, FLIPR); format: cell-based
T1 construct: expressed in transfected cells

[2] = Assay (XI) Pharmacokinetic study in minipigs; format: in vivo, Göttingen minipigs; settings: both sexes, Göttingen, minipig, plasma, iv, i.v. administration, terminal half-life, read-out: iv PK minipig [T½] (converted)
Method: Buffer: • 50 mM Dinatriumphosphatdihydrat • 184 mM Propylenglycol • 58 mM Phenol • pH adjusted to 8.15 with H3PO4. In cases where pH was adjusted to 8.15 after re-suspension of analogues, 0.2 M NaOH was used. Assay (XI) Pharmacokinetic Study in Minipigs
This is done in a pharmacokinetic (PK) study, whereamong other parameters the terminal half-life and the clearance of the derivative in question is determined. Increasing the terminal half-life and decreasing the clearance means that the compound of study is eliminated slower from the body.
Male or female Göttingen minipigs were obtained from Ellegaard Göttingen Minipigs (Dalmose, Denmark) approximately 7-14 months of age and weighing from approximately 16-35 kg were used in the studies. The minipigs were housed either individually (pigs with permanent catheters) or in a group and fed restrictedly once or twice daily with SDS minipig diet (Special Diets Services, Essex, UK). In some studies two permanent central venous catheters were implanted in vena cava caudalis or cranialis in each animal after at least 2 weeks of acclimatisation. […] On each dosing occasion these pigs were instrumented with a venflon in one ear vein through which the derivatives were dosed. Blood sampling was done by venipuncture in v. jugularis or v. cava cranialis
The animals were either unfasted or fasted for approximately 18 h before dosing and from 0 to 4 h after dosing, but had ad libitum access to water during the whole period.
Intravenous injections (the volume corresponding to usually 2-3 nmol/kg, for example 0.1 ml/kg) of the compounds were given through one catheter or through the venflon, and blood was sampled at predefined time points for up till 13 days post dosing (preferably through the other catheter or by venipuncture). Blood samples (for example 0.8 ml) were collected in tubes with EDTA buffer (8 mM) (sometimes aprotinin 500 KIU/ml blood was added) and then centrifuged at 4° C. and 1942 G for 10 minutes. […] Based on these measurements, time-plasma concentration profiles for the compound of study are plotted and a so-called non-compartmental pharmacokinetic analysis of the data is performed in WinNonlin v. 5.0 or Phoenix v. 6.2 (Pharsight Inc., Mountain View, Calif., USA) or other relevant software for PK analysis. For most compounds, the terminal part of the plasma-concentration profiles will be linear when drawn in a semi-logarithmic plot, reflecting that after the initial distribution, drug is removed from the body at a constant fractional rate. The rate (lambda Z or is equal to minus the slope of the terminal part of the plot. From this rate, also the terminal half-life may be calculated, as t½=ln(2)/λz (see, e.g., Johan Gabrielsson and Daniel Weiner: Pharmacokinetics and Pharmacodynamic Data Analysis. Concepts & Applications, 3rd Ed., Swedish Pharmaceutical Press, Stockholm (2000)).
Clearance is defined as the dose (D) divided by area under the curve (AUC) on the plasmaconcentration versus time profile (Rowland, M and Tozer T N: Clinical Pharmacokinetics: Concepts and Applications, 3rd edition, 1995 Williams Wilkins)

T1 sequence (P47871 26-477): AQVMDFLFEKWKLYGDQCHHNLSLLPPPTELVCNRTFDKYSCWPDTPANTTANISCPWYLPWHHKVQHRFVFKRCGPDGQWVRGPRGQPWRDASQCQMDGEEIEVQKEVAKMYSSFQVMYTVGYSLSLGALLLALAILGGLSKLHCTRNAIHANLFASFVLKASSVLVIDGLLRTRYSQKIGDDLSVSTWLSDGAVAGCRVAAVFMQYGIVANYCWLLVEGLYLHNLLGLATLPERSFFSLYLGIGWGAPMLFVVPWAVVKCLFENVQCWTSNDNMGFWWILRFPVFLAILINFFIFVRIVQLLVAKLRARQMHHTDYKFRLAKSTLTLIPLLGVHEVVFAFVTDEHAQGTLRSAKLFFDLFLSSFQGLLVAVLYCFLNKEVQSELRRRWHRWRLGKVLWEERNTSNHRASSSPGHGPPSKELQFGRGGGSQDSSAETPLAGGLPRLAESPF

| SMILES | Chemical stability [Purity loss/14 days 37 C.] [1] | EC50 (glucagon receptor) | half-life [2] |
| --- | --- | --- | --- |
| CC(C)C[C@H](NC(=O)[C@H](CC(=O)O)NC(=O)[C@H](CC(C)C)NC(=O)[C@H](Cc1ccc(O)cc1)NC(=O)[C@H](CCCNC(=N)N)NC(=O)[C@H](CO)NC(=O)[C@H](Cc1ccc(O)cc1)NC(=O)[C@H](CC(=O)O)NC(=O)[C@H](CO)NC(=O)[C@@H](NC(=O)[C@H](Cc1ccccc1)NC(=O)[C@@H](NC(=O)CNC(=O)[C@H](CCC(N)=O)NC(=O)[C@H](CO)NC(=O)[C@@H](N)Cc1c[nH]cn1)[C@@H](C)O)[C@@H](C)O)C(=O)N[C@@H](CCCNC(=N)N)C(=O)N[C@@H](CCCNC(=N)N)C(=O)N[C@@H](C)C(=O)N[C@@H](CCC(N)=O)C(=O)N[C@@H](CC(=O)O)C(=O)N[C@@H](Cc1ccccc1)C(=O)N[C@H](C(=O)N[C@@H](CCCCNC(=O)CC[C@H](NC(=O)CC[C@H](NC(=O)COCCOCCNC(=O)COCCOCCNC(=O)CC[C@H](NC(=O)CCCCCCCCCCCCCCCCC(=O)O)C(=O)O)C(=O)O)C(=O)O)C(=O)N[C@@H](Cc1c[nH]c2ccccc12)C(=O)N[C@@H](CC(C)C)C(=O)N[C@@H](CC(C)C)C(=O)N[C@@H](CO)C(=O)N[C@H](C(=O)O)[C@@H](C)O)C(C)C [Example 15, N^ε24-[(4S)-4-carboxy-4-[[(4S)-4-carboxy-4-[[2-[2-[2-[[2-[2-[2-[[(4S)-4-carboxy-4-(17-carboxyheptadecanoylamino)butanoyl]amino]ethoxy]ethoxy]acetyl]amino]ethoxy]ethoxy]acetyl]amino]butanoyl]amino]butanoyl]-[Arg^12,Leu^16,Lys^24,Leu^27,Ser^28]-Glucagon] (H-HSQGTFTSDYSRYLDLRRAQDFVK([γGlu-γGlu-AEEA-AEEA-γGlu-C18 diacid])WLLST-OH) | 5.3% | 0.255 nM | 77.4 h |
| CC(C)C[C@H](NC(=O)[C@H](CC(=O)O)NC(=O)[C@H](CC(C)C)NC(=O)[C@H](Cc1ccc(O)cc1)NC(=O)[C@H](CCCCN)NC(=O)[C@H](CO)NC(=O)[C@@H](NC(=O)[C@H](CC(=O)O)NC(=O)[C@H](CO)NC(=O)[C@@H](NC(=O)[C@H](Cc1ccccc1)NC(=O)[C@@H](NC(=O)CNC(=O)[C@H](CCC(N)=O)NC(=O)[C@H](CO)NC(=O)[C@@H](N)Cc1c[nH]cn1)[C@@H](C)O)[C@@H](C)O)C(C)C)C(=O)N[C@@H](CCCNC(=N)N)C(=O)N[C@@H](CCCNC(=N)N)C(=O)N[C@@H](C)C(=O)N[C@@H](CCC(N)=O)C(=O)N[C@@H](CCC(=O)O)C(=O)N[C@@H](Cc1ccccc1)C(=O)N[C@H](C(=O)N[C@@H](CCCCNC(=O)CC[C@H](NC(=O)COCCOCCNC(=O)COCCOCCNC(=O)CC[C@H](NC(=O)CC[C@H](NC(=O)CCCCCCCCCCCCCCCCC(=O)O)C(=O)O)C(=O)O)C(=O)O)C(=O)N[C@@H](Cc1c[nH]c2ccccc12)C(=O)N[C@@H](CC(C)C)C(=O)N[C@@H](CC(C)C)C(=O)N[C@@H](CO)C(=O)N[C@H](C(=O)O)[C@@H](C)O)C(C)C [Example 63, N^ε24-[(4S)-4-carboxy-4-[[2-[2-[2-[[2-[2-[2-[[(4S)-4-carboxy-4-[[(4S)-4-carboxy-4-(17-carboxyheptadecanoylamino)butanoyl]amino]butanoyl]amino]ethoxy]ethoxy]acetyl]amino]ethoxy]ethoxy]acetyl]amino]butanoyl]-[Val10,Leu16,Glu21,Lys24,Leu27,Ser28]-Glucagon] (H-HSQGTFTSDVSKYLDLRRAQEFVK([γGlu-AEEA-AEEA-γGlu-γGlu-C18 diacid])WLLST-OH) | 4.1% | 0.088 nM | 63.7 h |
| CC(C)C[C@H](NC(=O)[C@H](CC(=O)O)NC(=O)[C@H](CC(C)C)NC(=O)[C@H](Cc1ccc(O)cc1)NC(=O)[C@H](CCCCN)NC(=O)[C@H](CO)NC(=O)[C@H](Cc1ccc(O)cc1)NC(=O)[C@H](CC(=O)O)NC(=O)[C@H](CO)NC(=O)[C@@H](NC(=O)[C@H](Cc1ccccc1)NC(=O)[C@@H](NC(=O)CNC(=O)[C@H](CCC(N)=O)NC(=O)[C@H](CO)NC(=O)[C@@H](N)Cc1c[nH]cn1)[C@@H](C)O)[C@@H](C)O)C(=O)N[C@@H](CCCNC(=N)N)C(=O)N[C@@H](CCCNC(=N)N)C(=O)N[C@@H](C)C(=O)N[C@@H](CCC(N)=O)C(=O)N[C@@H](CC(=O)O)C(=O)N[C@@H](Cc1ccccc1)C(=O)N[C@H](C(=O)N[C@@H](CCCCNC(=O)CC[C@H](NC(=O)CC[C@H](NC(=O)CC[C@H](NC(=O)CC[C@H](NC(=O)CCCCCCCCCCCCCCCCC(=O)O)C(=O)O)C(=O)O)C(=O)O)C(=O)O)C(=O)N[C@@H](Cc1c[nH]c2ccccc12)C(=O)N[C@@H](CC(C)C)C(=O)N[C@@H](CC(C)C)C(=O)N[C@@H](CO)C(=O)N[C@H](C(=O)O)[C@@H](C)O)C(C)C [Example 80, N^ε24-[(4S)-4-carboxy-4-[[(4S)-4-carboxy-4-[[(4S)-4-carboxy-4-[[(4S)-4-carboxy-4-(17-carboxyheptadecanoylamino)butanoyl]amino]butanoyl]amino]butanoyl]amino]butanoyl]-[Leu16,Lys24,Leu27,Ser28]-Glucagon] | 4.5% | 0.126 nM | 60.9 h |

From patent US9486506B2 (Novo Nordisk A/S, priority 2011, dated 2016)
